Assay results reported in US8865748B2, “Compounds and compositions for stabilizing hypoxia inducible factor-2 alpha as a method for treating cancer” (Akebia Therapeutics Inc., priority 2011, dated 2014).

Assays:
[1] = tested on: tumor growth; assay: Tumor growth in LysMcre control mice and mice with myeloid-specific deletion of HIF-2α; type: in vivo; conditions: FIG. 15
Excerpt: HIF-2α^flox/flox mice (originally developed by Dr. Celeste Simon, University of Pennsylvania) and LysMcre recombinase mice (originally developed by Irmgard Foerster, University of Duesseldorf) (both purchased from The Jackson Laboratory, Bar Harbor, Me.) were crossed to generate mice homozygous for both LysMcre and the floxed HIF-2α allele. LysMcre recombinase mice, which express no floxed alleles, were used as controls. Deletion of HIF-2α in HIF-2α^flox/flox/LysMcre macrophages, but not the LysMcre control macrophages, was confirmed at the transcript level by real-time PCR.
The disclosed HIF-2α stabilizer is not targeted specifically to macrophages, and will stabilize HIF-2α in all tissues, not only the tumor-associated macrophages. In order to determine the role of macrophages in the anti-tumor response to the disclosed HIF-2α stabilizer, mice with a myeloid-specific deletion of HIF-2α (HIF-2α^flox/flox/LysMcre mice) were utilized.

[2] = tested on: HIF-1α; assay: Immunoblot for HIF-1α in murine bone marrow-derived macrophages; type: cell-based; conditions: treated for 18 hours, FIG. 11A
Experimental: To generate bone marrow-derived macrophages (BDMs), femoral bone marrow was isolated and progenitor cells were plated in RPMI-1640 supplemented with 10% FBS, 1% PSA, 10 μg/mL of polymyxin B, and 20 ng/mL of recombinant murine M-CSF. Cells were cultured for 5 days with the addition of fresh M-CSF every other day. Differentiated BDM were serum-starved for 2 hours and then treated with 100 ng/mL of murine GM-CSF and/or 25 μM the disclosed HIF-2α stabilizer in RPMI-1640 containing 1% FBS and 10 μg/mL polymixin B. Culture supernatants were collected after 72 hours and assayed for VEGF and sVEGFR-1 content by ELISA (R&D Systems).
In order to confirm the selective upregulation of HIF-2α by the disclosed HIF-2α stabilizer, murine bone marrow-derived macrophages were treated with the disclosed HIF-2α stabilizer for 18 hours, and cells were then lysed and immunoblotted for HIF-1α and HIF-2α.

[3] = tested on: VEGF mRNA; assay: VEGF mRNA expression in wild type murine embryonic fibroblasts (quantitative PCR); type: cell-based; conditions: hypoxic conditions (1% O2); 1, 10 and 100 μM; vs. hypoxia control; FIG. 1A
Experimental: Total RNA was isolated from tissues and cells by using TRIzol™ Reagent (Invitrogen) and the RNeasy kit (Qiagen), respectively. 1 μg RNA was used for reverse transcription using SuperScript II First-Strand Synthersis System (Invitrogen). cDNA's were amplified in a SYR Green or TaqMan Universal Master Mix (Applied Biosystems). Quantitative PCR (qPCR) was performed on ABI Prism 7700 sequence detection system. PCR conditions are: 10 min at 95° C., 40 cycles of 15 seconds at 95° C. and 1 minute at 60° C. The relative amount of mRNA was calculated after normalization to β-actin.
Cells were cultured in DMEM (#11965-092, Invitrogen) supplemented with 10% fetal bovine serum (Invitrogen), 100 U/mL penicillin and […] streptomycin. For glucose deprivation, DMEM without glucose (#11966-025, Invitrogen) was used.
Mouse embryonic fibroblasts (MEFs) were isolated from E12.5 embryos and immortalized by stable transfection with SV40 large T antigen.

[4] = tested on: VEGF; assay: VEGF production by human peripheral blood monocytes (ELISA, real-time PCR); type: cell-based; conditions: FIG. 11C
Experimental: Human peripheral blood mononuclear cells (PBMCs) were isolated from fresh peripheral blood leukocyte source packs (American Red Cross, Columbus Ohio) by density gradient centrifugation over Lymphocyte Separation Medium (Cellgro). Monocytes were purified from total PBMCs by layering over FBS. Monocytes were cultured in endotoxin-free RPMI-1640 supplemented with 1% fetal bovine serum (FBS), 0.1% human serum albumin (HSA), and 10 μg/mL of the endotoxin inhibitor polymyxin B. In some experiments, freshly isolated monocytes were differentiated into macrophages by three-day culture in media containing 10% FBS, 1% PSA (penicillin G sodium, streptomycin sulfate, and amphotericin B), and 20 ng/mL M-CSF. Macrophages were serum-starved for 2 hours prior to stimulation. Monocytes or monocyte-derived macrophages were treated for 24 hours with 10 ng/mL GM-CSF, 10 μM disclosed HIF-2α stabilizer, or an equivalent volume of the vehicle controls (PBS or DMSO, respectively). Cell-free culture supernatants were harvested and analyzed for VEGF or sVEGFR-1 by ELISA (R&D Systems).
Human monocytes were left untreated or were stimulated with 100 ng/mL GM-CSF at normoxia or at 0.5% O2. At various time-points, cells were harvested in Trizol reagent (Invitrogen) and RNA was extracted in chloroform and then purified using the RNeasy Minikit (Qiagen). In murine studies, organs harvested at the time of euthanasia were flash-frozen in liquid nitrogen, pulverized in liquid nitrogen, and then dissolved in Trizol. cDNA was generated from 1 μg of RNA using the Superscript First Strand Synthesis System (Invitrogen) and used for real-time PCR using previously described primers and SYBR Green PCR Master Mix (Applied Biosciences), according to the manufacturer's instructions. Data were analyzed according to the comparative threshold method and normalized against the β-actin internal control transcript. Results are semi-quantitative and represent the fold difference in transcript levels in a particular sample as compared with levels in untreated cells from the same donor.
VEGF protein was undetectable in the supernatants of GM-CSF-stimulated monocytes, due to neutralization of VEGF by sVEGFR-1 (FIG. 11C).
Since monocyte production of VEGF was dependent on HIF-1α, the inventors herein determined whether selective stabilization of HIF-1α via inhibition of PHD2 would increase monocyte production of VEGF but not sVEGFR-1. In order to make such determination, human peripheral blood monocytes were stimulated with GM-CSF in the presence of a selective inhibitor of PHD2 which results in the stabilization of HIF-1α.

[5] = tested on: endothelial cell marker CD31; assay: Tumor vascularity by CD31 immunohistochemistry in melanoma-bearing mice; type: in vivo; conditions: mice treated with the control antibody; FIG. 14B; p=0.022
[6] = mice with HIF-2α-deficient macrophages

O=C(O)CNC(=O)c1ncc(-c2cccc(F)c2)cc1O [disclosed HIF-2α stabilizer, {[5-(3-Fluorophenyl)-3-hydroxypyridine-2-carbonyl]amino}acetic acid]
tumor growth ([1]; LysMcre control mice): inhibited tumor growth
magnitude of the anti-tumor response relative to control mice [1, 6]: much less
tumor growth [1, 6]: reduced tumor growth
HIF-1α protein [2]: no corresponding increase
VEGF mRNA (relative amount) [3]: dramatic reduction
VEGF production, transcript levels by real-time PCR ([4]; GM-CSF alone vs. GM-CSF and stabilizer, p=0.556): no difference
production of VEGF protein (free VEGF ELISA) ([4]; same supernatants as sVEGFR-1, 10 μM stabilizer, p=0.133): did not significantly increase
tumor vascularity (CD31) [5]: decreased tumor vascularity
